Measured values taken from PubChem BioAssay (NCI).
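96-well plates; 48 h exposure; 5 concentrations. Endpoints by linear interpolation between flanking doses. Not reached: highest tested concentration assigned. Abbreviation: GI50, concentration required for 50% inhibition of growth. TGI denotes the concentration required for complete inhibition of growth.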

Assays:
Experiment in all cases: NCI tumour cell line growth inhibition, 48 h
[1] = test system: OVCAR-3 ovarian
[2] = test system: LOX IMVI melanoma
[3] = test system: UACC-62 melanoma
[4] = test system: HL-60(TB) leukemia
[5] = test system: HCT-15 colon
[6] = test system: HS 578T breast
[7] = test system: SK-MEL-2 melanoma
[8] = test system: BT-549 breast
[9] = test system: A549 NSCLC
[10] = test system: SF-295 CNS
[11] = test system: NCI/ADR-RES ovarian
[12] = test system: MOLT-4 leukemia
[13] = test system: OVCAR-5 ovarian
[14] = test system: HOP-62 NSCLC
[15] = test system: TK-10 renal
[16] = test system: MDA-MB-435
[17] = test system: UO-31 renal
[18] = test system: U251 CNS
[19] = test system: IGROV1 ovarian
[20] = test system: 786-0 renal
[21] = test system: COLO 205 colon
[22] = test system: OVCAR-4 ovarian
[23] = test system: T-47D breast
[24] = test system: CCRF-CEM leukemia
[25] = test system: SR leukemia
[26] = test system: PC-3 prostate
[27] = test system: UACC-257 melanoma
[28] = test system: SW-620 colon
[29] = test system: RPMI-8226 leukemia
[30] = test system: A498 renal
[31] = test system: MALME-3M melanoma
[32] = test system: HCT-116 colon
[33] = test system: DU-145 prostate
[34] = test system: RXF 393 renal
[35] = test system: NCI-H226 lung
[36] = test system: NCI-H460 lung
[37] = test system: SF-268 CNS
[38] = test system: SK-OV-3 ovarian
[39] = test system: SNB-19 CNS
[40] = test system: SN12C renal
[41] = test system: M14 melanoma
[42] = test system: CAKI-1 renal
[43] = test system: MCF7 breast
[44] = test system: ACHN renal
[45] = test system: SF-539 CNS
[46] = test system: SK-MEL-28 melanoma
[47] = test system: HOP-92 NSCLC
[48] = test system: NCI-H522 lung
[49] = test system: KM12 colon
[50] = test system: HCC-2998 colon
[51] = test system: HT29 colon
[52] = test system: EKVX NSCLC
[53] = test system: SNB-75 CNS
[54] = test system: MDA-MB-231 breast
[55] = test system: K-562 leukemia
[56] = test system: SK-MEL-5 melanoma
[57] = test system: OVCAR-8 ovarian
[58] = test system: NCI-H23 lung

Which GI50 [1] does the source give for `COC(=O)c1c(C)c2n(c1C)C(=O)C(c1ccccc1)=C2` here?
Its GI50 is 45.4 µM.

And the TGI [1]?
The TGI was > 100 µM.

And the GI50 [2]?
The GI50 was 58.8 µM.

What about the TGI [2] of the same molecule?
The TGI was > 100 µM.

And the GI50 [3]?
The GI50 was 28.1 µM.

What about the TGI [3] of the same molecule?
The TGI was > 100 µM.

What about the GI50 [4] of the same molecule?
Its GI50 is 53.8 µM.

What about the TGI [4] of the same molecule?
Its TGI is > 100 µM.

What about the GI50 [5] of the same molecule?
Its GI50 is 28.9 µM.

And the TGI [5]?
The TGI was > 100 µM.

What about the GI50 [6] of the same molecule?
Its GI50 is 8.13 µM.

What about the TGI [6] of the same molecule?
Its TGI is > 100 µM.

And the GI50 [7]?
Its GI50 is > 100 µM.

What about the TGI [7] of the same molecule?
The TGI was > 100 µM.

And the GI50 [8]?
The GI50 was 61.6 µM.

What about the TGI [8] of the same molecule?
The TGI was > 100 µM.

What about the GI50 [9] of the same molecule?
Its GI50 is > 81.2 µM.

What about the TGI [9] of the same molecule?
Its TGI is > 100 µM.

And the GI50 [10]?
The GI50 was > 61.9 µM.

And the TGI [10]?
The TGI was > 100 µM.

What about the GI50 [11] of the same molecule?
Its GI50 is 53.2 µM.

And the TGI [11]?
The TGI was > 100 µM.

And the GI50 [12]?
The GI50 was 30.8 µM.

And the TGI [12]?
Its TGI is > 100 µM.

What about the GI50 [13] of the same molecule?
The GI50 was > 91.9 µM.

What about the TGI [13] of the same molecule?
The TGI was > 100 µM.

What about the GI50 [14] of the same molecule?
The GI50 was 67.1 µM.

What about the TGI [14] of the same molecule?
The TGI was > 100 µM.

What about the GI50 [15] of the same molecule?
Its GI50 is 48.2 µM.

And the TGI [15]?
The TGI was > 100 µM.

And the GI50 [16]?
Its GI50 is 25.1 µM.

What about the TGI [16] of the same molecule?
The TGI was > 100 µM.

And the GI50 [17]?
Its GI50 is 31.7 µM.

What about the TGI [17] of the same molecule?
The TGI was > 100 µM.

What about the GI50 [18] of the same molecule?
Its GI50 is 82.8 µM.

And the TGI [18]?
Its TGI is > 100 µM.

What about the GI50 [19] of the same molecule?
Its GI50 is 34.4 µM.

And the TGI [19]?
The TGI was > 100 µM.

What about the GI50 [20] of the same molecule?
Its GI50 is 88.1 µM.

What about the TGI [20] of the same molecule?
Its TGI is > 100 µM.

What about the GI50 [21] of the same molecule?
The GI50 was > 93 µM.

And the TGI [21]?
Its TGI is > 100 µM.

And the GI50 [22]?
The GI50 was 50.4 µM.

And the TGI [22]?
Its TGI is > 100 µM.

What about the GI50 [23] of the same molecule?
Its GI50 is 9.38 µM.

What about the TGI [23] of the same molecule?
The TGI was > 100 µM.

What about the GI50 [24] of the same molecule?
The GI50 was 51.8 µM.

And the TGI [24]?
Its TGI is > 100 µM.

And the GI50 [25]?
Its GI50 is > 50.1 µM.

What about the TGI [25] of the same molecule?
The TGI was > 100 µM.

What about the GI50 [26] of the same molecule?
The GI50 was > 80.6 µM.

And the TGI [26]?
Its TGI is > 100 µM.

What about the GI50 [27] of the same molecule?
The GI50 was > 100 µM.

What about the TGI [27] of the same molecule?
The TGI was > 100 µM.

And the GI50 [28]?
Its GI50 is 48.6 µM.

What about the TGI [28] of the same molecule?
The TGI was > 100 µM.

What about the GI50 [29] of the same molecule?
The GI50 was 25.9 µM.

And the TGI [29]?
The TGI was > 100 µM.

And the GI50 [30]?
Its GI50 is > 84.7 µM.

What about the TGI [30] of the same molecule?
The TGI was > 100 µM.

And the GI50 [31]?
Its GI50 is > 100 µM.

And the TGI [31]?
Its TGI is > 100 µM.

What about the GI50 [32] of the same molecule?
Its GI50 is 42.5 µM.

What about the TGI [32] of the same molecule?
The TGI was > 100 µM.

What about the GI50 [33] of the same molecule?
The GI50 was > 100 µM.

And the TGI [33]?
Its TGI is > 100 µM.

And the GI50 [34]?
The GI50 was 55 µM.

And the TGI [34]?
Its TGI is > 100 µM.

What about the GI50 [35] of the same molecule?
Its GI50 is > 100 µM.

What about the TGI [35] of the same molecule?
Its TGI is > 100 µM.

And the GI50 [36]?
Its GI50 is 58.2 µM.

And the TGI [36]?
Its TGI is > 100 µM.

And the GI50 [37]?
The GI50 was > 100 µM.

What about the TGI [37] of the same molecule?
The TGI was > 100 µM.

What about the GI50 [38] of the same molecule?
Its GI50 is > 73.9 µM.

And the TGI [38]?
Its TGI is > 100 µM.

And the GI50 [39]?
The GI50 was > 95.6 µM.

And the TGI [39]?
Its TGI is > 100 µM.

And the GI50 [40]?
The GI50 was > 100 µM.

And the TGI [40]?
Its TGI is > 100 µM.

And the GI50 [41]?
Its GI50 is > 71 µM.

What about the TGI [41] of the same molecule?
The TGI was > 100 µM.

And the GI50 [42]?
The GI50 was > 47.9 µM.

What about the TGI [42] of the same molecule?
Its TGI is > 100 µM.

And the GI50 [43]?
Its GI50 is 5.32 µM.

What about the TGI [43] of the same molecule?
The TGI was > 100 µM.

What about the GI50 [44] of the same molecule?
Its GI50 is > 87.6 µM.

What about the TGI [44] of the same molecule?
Its TGI is > 100 µM.

And the GI50 [45]?
Its GI50 is > 88.8 µM.

What about the TGI [45] of the same molecule?
Its TGI is > 100 µM.

What about the GI50 [46] of the same molecule?
The GI50 was > 87.8 µM.

What about the TGI [46] of the same molecule?
The TGI was > 100 µM.

What about the GI50 [47] of the same molecule?
Its GI50 is > 47.1 µM.

And the TGI [47]?
The TGI was > 100 µM.

What about the GI50 [48] of the same molecule?
Its GI50 is 58.2 µM.

And the TGI [48]?
The TGI was > 100 µM.

And the GI50 [49]?
The GI50 was 49.7 µM.

And the TGI [49]?
The TGI was > 100 µM.

What about the GI50 [50] of the same molecule?
Its GI50 is > 57.8 µM.

What about the TGI [50] of the same molecule?
The TGI was > 100 µM.

And the GI50 [51]?
Its GI50 is 41.1 µM.

And the TGI [51]?
Its TGI is > 100 µM.

And the GI50 [52]?
The GI50 was 5.91 µM.

And the TGI [52]?
The TGI was > 100 µM.

And the GI50 [53]?
The GI50 was 30.1 µM.

And the TGI [53]?
Its TGI is > 100 µM.

And the GI50 [54]?
The GI50 was 24.3 µM.

And the TGI [54]?
The TGI was > 100 µM.

And the GI50 [55]?
The GI50 was 45.3 µM.

What about the TGI [55] of the same molecule?
The TGI was > 100 µM.

What about the GI50 [56] of the same molecule?
Its GI50 is 26.9 µM.

What about the TGI [56] of the same molecule?
The TGI was > 100 µM.

And the GI50 [57]?
The GI50 was > 90.9 µM.

And the TGI [57]?
The TGI was > 100 µM.

What about the GI50 [58] of the same molecule?
Its GI50 is > 58.3 µM.

And the TGI [58]?
The TGI was > 100 µM.
